Assay results from patent publication US9040715B2 (priority 2008, dated 2015).
In brackets after ≈: the same amount, converted by molar mass. Read-outs that look alike come from different tables or passages of the source. *1 amine or outer side, *2 acyl side, *3 side chain or, on linkers, in order; H or OH if unused. Where a SMILES comes first, the peptide text is derived from it. Bridges are numbered along the chain shown (N, C = ends). [ ]: non-standard residue; d: D form. The star is where a group is joined. hTyr(3S-OH,4S-OH,3'-OSO3H) = N[C@H](C(=O)O)[C@H](O)[C@@H](O)c1ccc(O)c(OS(=O)(=O)O)c1; Orn(4R-OH,5R-OH) = O=C([C@H](C[C@@H](O)[C@@H](O)N[*:3])N[*:1])[*:2]; Pro(3S-OH,4S-Me) = C[C@H]1CN[C@H](C(=O)O)[C@H]1O; X1 = CCCCCOc1ccc(-c2cc(-c3ccc(C(=O)*)cc3)no2)cc1; Gln(3R-OH) = NC(=O)C[C@@H](O)[C@H](N)C(=O)O; Hyp = O=C(O)[C@@H]1C[C@@H](O)CN1

Columns and labels:
Type in all cases: cell-based
Aspergillus fumigatus = test: Anti-fungal/anti-yeast activity: MIC50 (broth microdilution) and MFC
Procedure: (§1) Fluconazole, an ergosterol inhibitor, and the beta-1,3-glucan inhibitor micafungin served as controls (See Tables 1-8).
(§2) The minimum inhibitory concentrations resulting in 50% growth inhibition (MIC50) of […] Candida species (C. albicans, C. tropicalis and C. glabrata, C. lusitaniae, C. parapsilosis, and C. apicola) as well as Aspergillus fumigatus to a set of novel synthetic compounds was determined in accordance with the guidelines in CLSI document M27-A2 (Clinical and Laboratory Standards Institute; Wayne, Pa.). The total volume of cells and drug was 100 μL per microtiter well, and each drug was diluted in RPMI to achieve final concentrations of 0.2-100 μg/ml. Uninoculated cultures were used as a reference standard. Stock inoculum suspensions were prepared from 24 hour cultures on YPD (yeast extract/peptone/dextrose) media at 30° C. For MIC determinations, an inoculum of 1.0×10^3 cells of Candidia and 2.0×10^3 cells of Aspergillus per well were used, and cells in diluted drugs were prepared in RPMI-1640 medium. MICs were determined both visually and spectrophotometrically at 24 hours and 48 h at 550 nm using a micro plate reader. The MIC50 endpoint was measured as the lowest drug concentration resulting in a reduction of growth of 50% or more compared with growth of the control.
(§3) The minimum fungicidal concentrations (MFCs) were determined for each drug-isolate-medium combination as follows. After 48 hours of incubation, 100 μL of each drug-isolate-medium combination (2 plates) was subcultured onto YPD plates (100 μL of solution was spread over the YPD plate). […] The plates were then incubated at 30° C. for 48 hours.
(§4) The in vitro fungicidal activities (MFCs) were determined for each drug-isolate-medium combination as follows. After 48 hours of incubation, 10 μL each drug-isolate-medium combination was spotted onto YPD plates (10 μL of each well is spotted sequentially with positive and negative control wells). […] The plates were then incubated at 30° C. for 48 hours.

Candida albicans (CAF-2) = test: as above
Procedure: as §1, §2, §3, §4

Candida apicola = test: as above; details: for MFC / MIC50: Starmerella apicola
Procedure: as §1, §2, §3, §4

Candida glabrata = test: as above; details: for MFC / MIC50: Nakaseomyces glabratus
Procedure: as §1, §2, §3, §4

Candida lusitaniae = test: as above; details: for MFC / MIC50: Clavispora lusitaniae
Procedure: as §1, §2, §3, §4

Candida tropicalis = test: as above
Procedure: as §1, §2, §3, §4

Candidia parapsilosis = test: as above
Procedure: as §1, §2, §3, §4

[1] = test system: Saccharomyces cerevisiae (YPH501); test: as above
[2] = test system: Fluconazole Resistant C. albicans; test: microbe, parasite or virus in culture; details: Candida albicans, read-out: MIC50
Procedure: as §2
The MIC50 of Compounds I-1, I-2, and I-5 in several mutant strains of Candida albicans, including fluconazole resistant clinical strains, was determined according to the methods described in Example 1 (see Table 9). The activity of Compound I-1 against fluconazole resistant strains was further explored (see Table 10). In Table 10, Strain #1 is a fluconazole sensitive Candida albicans strain; Strain #17 is a fluconazole resistant Candida albicans strain; C. albicans CS#01 is a first clinical strain; C. albicans CS#02 is a second clinical strain.

[3] = Saccharomyces cerevisiae (YPH501)

SMILES	Activity (fungicidal/fungistatic) (Aspergillus fumigatus)	Ratio MFC/MIC (Aspergillus fumigatus)	Activity (fungicidal/fungistatic) (Candida albicans (CAF-2))	MFC (Candida albicans (CAF-2)) [µg/mL]	MIC50 (Candida albicans (CAF-2)) [µg/mL]	Ratio MFC/MIC (Candida albicans (CAF-2))	Activity (fungicidal/fungistatic) (Candida apicola; Candida apicola)	Ratio MFC/MIC (Candida apicola; Candida apicola)	Activity (fungicidal/fungistatic) (Candida glabrata; Candida glabrata)	Ratio MFC/MIC (Candida glabrata; Candida glabrata)	Activity (fungicidal/fungistatic) (Candida lusitaniae; Candida lusitaniae)	Ratio MFC/MIC (Candida lusitaniae; Candida lusitaniae)	Activity (fungicidal/fungistatic) (Candida tropicalis)	Ratio MFC/MIC (Candida tropicalis)	Activity (fungicidal/fungistatic) (Candidia parapsilosis; Candidia parapsilosis)	Ratio MFC/MIC (Candidia parapsilosis; Candidia parapsilosis)	Activity (fungicidal/fungistatic) [1, 3]	Ratio MFC/MIC [1, 3]	also measured
OC(Cn1cncn1)(Cn1cncn1)c1ccc(F)cc1F [Fluconazole, reference compound]	fungistatic (an MFC/MIC ratio of greater than four indicates that the compound is fungistatic)	7	fungistatic (an MFC/MIC ratio of greater than four indicates that the compound is fungistatic)	5	0.25	20	fungistatic (an MFC/MIC ratio of greater than four indicates that the compound is fungistatic)	5	fungistatic (an MFC/MIC ratio of greater than four indicates that the compound is fungistatic)	9	fungistatic (an MFC/MIC ratio of greater than four indicates that the compound is fungistatic)	8	fungistatic (an MFC/MIC ratio of greater than four indicates that the compound is fungistatic)	5	fungistatic (an MFC/MIC ratio of greater than four indicates that the compound is fungistatic)	10	fungicidal (An MFC/MIC ratio of less than four indicates that the compound is fungicidal)	1	MFC (Aspergillus fumigatus; read-out: MFC): 200 µg/mL; MIC50 (Aspergillus fumigatus; read-out: MIC-50): 30 µg/mL; MFC (Candida apicola; Candida apicola, read-out: MFC): 1 µg/mL; MIC50 (Candida apicola; Candida apicola, read-out: MIC-50): 0.2 µg/mL; MFC (Candida glabrata; Candida glabrata, read-out: MFC): 50 µg/mL; MIC50 (Candida glabrata; Candida glabrata, read-out: MIC-50): 6.2 µg/mL; MFC (Candida lusitaniae; Candida lusitaniae, read-out: MFC): 25 µg/mL; MIC50 (Candida lusitaniae; Candida lusitaniae, read-out: MIC-50): 3.2 µg/mL; MFC (Candida tropicalis; read-out: MFC): 100 µg/mL; MIC50 (Candida tropicalis; read-out: MIC-50): 20 µg/mL; MFC (Candidia parapsilosis; Candidia parapsilosis, read-out: MFC): 4 µg/mL; MIC50 (Candidia parapsilosis; Candidia parapsilosis, read-out: MIC-50): 0.4 µg/mL; MFC ([1]; Saccharomyces cerevisiae (YPH501), read-out: MFC): 10 µg/mL (≈ 32.7 µM); MIC50 ([1]; Saccharomyces cerevisiae (YPH501), read-out: MIC-50): 10 µg/mL (≈ 32.7 µM); MIC50 ([2]; C. albicans CS#01, first clinical strain): 1.6 µg/mL (≈ 5.22 µM); MIC50 ([2]; C. albicans CS#02, second clinical strain): 1.6 µg/mL (≈ 5.22 µM); MIC50 ([2]; Strain #1, fluconazole sensitive Candida albicans strain): 0.8 µg/mL (≈ 2.61 µM); MIC50 ([2]; Strain #17, fluconazole resistant Candida albicans strain): > 100 µg/mL
CCCCCOc1ccc(-c2cc(-c3ccc(C(=O)N[C@H]4C[C@@H](O)[C@@H](O)NC(=O)[C@@H]5[C@@H](O)[C@@H](C)CN5C(=O)[C@H]([C@H](O)CC(N)=O)NC(=O)[C@H]([C@H](O)[C@@H](O)c5ccc(O)c(OS(=O)(=O)O)c5)NC(=O)[C@@H]5C[C@@H](O)CN5C(=O)[C@H]([C@@H](C)O)NC4=O)cc3)no2)cc1 [Micafungin, micafungin, reference compound] (X1-[Orn(4R-OH,5R-OH)]T[Hyp][hTyr(3S-OH,4S-OH,3'-OSO3H)][Gln(3R-OH)][Pro(3S-OH,4S-Me)]; lactam 1-C)	fungistatic (an MFC/MIC ratio of greater than four indicates that the compound is fungistatic)	8	fungicidal (An MFC/MIC ratio of less than four indicates that the compound is fungicidal)	0.016	0.016	1	fungicidal (An MFC/MIC ratio of less than four indicates that the compound is fungicidal)	2	fungicidal (An MFC/MIC ratio of less than four indicates that the compound is fungicidal)	1	fungicidal (An MFC/MIC ratio of less than four indicates that the compound is fungicidal)	1	fungicidal (An MFC/MIC ratio of less than four indicates that the compound is fungicidal)	2	fungistatic (an MFC/MIC ratio of greater than four indicates that the compound is fungistatic)	8	fungicidal (An MFC/MIC ratio of less than four indicates that the compound is fungicidal)	2	MFC (Aspergillus fumigatus): 8 µg/mL; MIC50 (Aspergillus fumigatus): 1 µg/mL; MFC (Candida apicola): 0.032 µg/mL; MIC50 (Candida apicola): 0.016 µg/mL; MFC (Candida glabrata): 0.016 µg/mL; MIC50 (Candida glabrata): 0.016 µg/mL; MFC (Candida lusitaniae): 0.032 µg/mL; MIC50 (Candida lusitaniae): 0.032 µg/mL; MFC (Candida tropicalis): 0.032 µg/mL; MIC50 (Candida tropicalis): 0.016 µg/mL; MFC (Candidia parapsilosis): 3.2 µg/mL; MIC50 (Candidia parapsilosis): 0.4 µg/mL; MFC ([1]; Saccharomyces cerevisiae): 0.064 µg/mL (≈ 0.0504 µM); MIC50 ([1]; Saccharomyces cerevisiae): 0.032 µg/mL (≈ 0.0252 µM)
